Data as given in US20220017501A1, “MICROBIOCIDAL THIAZOLE DERIVATIVES” (SYNGENTA PARTICIPATIONS AG, priority 2018, published 2022).

Columns and labels:
[1] = tested on: Glomerella lagenarium (Colletotrichum lagenarium); experiment: Glomerella lagenarium (Colletotrichum lagenarium) / liquid culture (anthracnose); type: cell-based; details: Colletotrichum orbiculare, growth inhibition photometrically 3-4 days after application, read-out: control of Glomerella lagenarium
Method: Example B3: Glomerella Lagenarium (Colletotrichum Lagenarium)/Liquid Culture (Anthracnose) Conidia of the fungus from cryogenic storage are directly mixed into nutrient broth (PDB potato dextrose broth). After placing a (DMSO) solution of test compound into a microtiter plate (96-well format), the nutrient broth containing the fungal spores is added. The test plates are incubated at 24° C. and the inhibition of growth is measured photometrically 3-4 days after application.

[2] = tested on: Blumeria graminis f. sp. tritici (Erysiphe graminis f. sp. tritici); experiment: Blumeria graminis f. sp. tritici / wheat / leaf disc preventative (powdery mildew on wheat); type: in vivo; details: foliar, wheat leaf segments, compared to untreated control
Method: Example B4: Blumeria Graminis f. sp. Tritici (Erysiphe Graminis f. sp. Tritici)/Wheat/Leaf Disc Preventative (Powdery Mildew on Wheat) Wheat leaf segments cv. Kanzler are placed on agar in a multiwell plate (24-well format) and sprayed with the formulated test compound diluted in water. The leaf disks are inoculated by shaking powdery mildew infected plants above the test plates 1 day after application. The inoculated leaf disks are incubated at 20° C. and 60% rh under a light regime of 24 h darkness followed by 12 h light/12 h darkness in a climate chamber and the activity of a compound is assessed as percent disease control compared to untreated when an appropriate level of disease damage appears on untreated check leaf segments (6-8 days after application). […].23.

[3] = tested on: Monographella nivalis (Microdochium nivale); experiment: Monographella nivalis (Microdochium nivale) / liquid culture (foot rot cereals); type: cell-based; details: growth inhibition photometrically 4-5 days after application, read-out: control of Monographella nivalis
Method: Example B7: Monographella Nivalis (Microdochium Nivale)/Liquid Culture (Foot Rot Cereals) Conidia of the fungus from cryogenic storage are directly mixed into nutrient broth (PDB potato dextrose broth). After placing a (DMSO) solution of test compound into a microtiter plate (96-well format), the nutrient broth containing the fungal spores is added. The test plates are incubated at 24° C. and the inhibition of growth is determined photometrically 4-5 days after application. […] […].23.

[4] = tested on: Mycosphaerella arachidis (Cercospora arachidicola); experiment: Mycosphaerella arachidis (Cercospora arachidicola) / liquid culture (early leaf spot); type: cell-based; details: growth inhibition photometrically 4-5 days after application, read-out: control of Mycosphaerella arachidis
Method: Example B8: Mycosphaerella Arachidis (Cercospora Arachidicola)/Liquid Culture (Early Leaf Spot) Conidia of the fungus from cryogenic storage are directly mixed into nutrient broth (PDB potato dextrose broth). After placing a (DMSO) solution of test compound into a microtiter plate (96-well format), the nutrient broth containing the fungal spores is added. The test plates are incubated at 24° C. and the inhibition of growth is determined photometrically 4-5 days after application. […] […].23.

[5] = tested on: Magnaporthe grisea (Pyricularia oryzae); experiment: whole plant or invertebrate; type: in vivo; details: foliar, read-out: control of Magnaporthe grisea
[6] = tested on: Mycosphaerella graminicola (Septoria tritici); experiment: Mycosphaerella graminicola (Septoria tritici) / liquid culture (Septoria blotch); type: cell-based; details: Zymoseptoria tritici, growth inhibition photometrically 4-5 days after application, read-out: control of Mycosphaerella graminicola
Method: Example B16: Mycosphaerella Graminicola (Septoria Tritici)/Liquid Culture (Septoria Blotch) Conidia of the fungus from cryogenic storage are directly mixed into nutrient broth (PDB potato dextrose broth). After placing a (DMSO) solution of test compound into a microtiter plate (96-well format), the nutrient broth containing the fungal spores is added. The test plates are incubated at 24° C. and the inhibition of growth is determined photometrically 4-5 days after application. […] […].23.

Cc1sc(N(C#N)c2cc(F)cc(F)c2)nc1C(=O)NC1CCC1(C)C (stereo not drawn) [I.b.08, 2-(N-cyano-3,5-difluoro-anilino)-N-(2,2-dimethylcyclobutyl)-5-methyl-thiazole-4-carboxamide]
≥ 80%: inhibition of growth at 20 ppm [1] | pest or weed control at 200 ppm [2] | inhibition of growth at 20 ppm [3] | inhibition of growth at 20 ppm [4] | pest or weed control at 200 ppm [5] | inhibition of growth at 20 ppm [6]

CC1(C)CCC1NC(=O)c1nc(N(C#N)c2cc(F)nc(F)c2)sc1NC=O (stereo not drawn) [I.b.25, 2-[cyano-(2,6-difluoro-4-pyridyl)amino]-N-(2,2-dimethylcyclobutyl)-5-formamido-thiazole-4-carboxamide]
≥ 80%: inhibition of growth at 20 ppm [1] | inhibition of growth at 20 ppm [3] | inhibition of growth at 20 ppm [6]

Cc1sc(N(C#N)c2cc(F)nc(F)c2)nc1C(=O)NC1CCC12CCC2 (stereo not drawn) [I.e.23, 2-[cyano-(2,6-difluoro-4-pyridyl)amino]-5-methyl-N-spiro[3.3]heptan-3-yl-thiazole-4-carboxamide]
≥ 80%: inhibition of growth at 20 ppm [1] | pest or weed control at 200 ppm [2] | inhibition of growth at 20 ppm [3] | inhibition of growth at 20 ppm [4] | pest or weed control at 200 ppm [5] | inhibition of growth at 20 ppm [6]

Cc1sc(N(C#N)c2cc(F)nc(F)c2)nc1C(=O)NCC1(CC2CC2)CC1 [I.f.23, 2-[cyano-(2,6-difluoro-4-pyridyl)amino]-N-[[1-(cyclopropylmethyl)cyclopropyl]methyl]-5-methyl-thiazole-4-carboxamide]
≥ 80%: inhibition of growth at 20 ppm [1] | pest or weed control at 200 ppm [2] | inhibition of growth at 20 ppm [3] | inhibition of growth at 20 ppm [4] | pest or weed control at 200 ppm [5] | inhibition of growth at 20 ppm [6]

Cc1sc(N(C#N)c2cc(F)cc(F)c2)nc1C(=O)NC1(C)CCCC1 [I.g.08, 2-(N-cyano-3,5-difluoro-anilino)-5-methyl-N-(1-methylcyclopentyl)thiazole-4-carboxamide]
≥ 80%: inhibition of growth at 20 ppm [1] | pest or weed control at 200 ppm [2] | inhibition of growth at 20 ppm [3] | inhibition of growth at 20 ppm [4] | pest or weed control at 200 ppm [5]

CCCCCCNC(=O)c1nc(N(C#N)c2cc(F)nc(F)c2)sc1C [I.h.23, 2-[cyano-(2,6-difluoro-4-pyridyl)amino]-N-hexyl-5-methyl-thiazole-4-carboxamide]
≥ 80%: inhibition of growth at 20 ppm [1] | pest or weed control at 200 ppm [2] | inhibition of growth at 20 ppm [3] | inhibition of growth at 20 ppm [4] | pest or weed control at 200 ppm [5] | inhibition of growth at 20 ppm [6]

Cc1sc(N(C#N)c2cc(F)nc(F)c2)nc1C(=O)NC(C)c1ccccc1 (stereo not drawn) [I.j.23, 2-[cyano-(2,6-difluoro-4-pyridyl)amino]-5-methyl-N-(1-phenylethyl)thiazole-4-carboxamide]
≥ 80%: inhibition of growth at 20 ppm [1] | pest or weed control at 200 ppm [2] | inhibition of growth at 20 ppm [3] | pest or weed control at 200 ppm [5] | inhibition of growth at 20 ppm [6]

CCCCCNC(=O)c1nc(N(C#N)c2cc(F)nc(F)c2)sc1C [I.l.23, 2-[cyano-(2,6-difluoro-4-pyridyl)amino]-5-methyl-N-pentyl-thiazole-4-carboxamide]
≥ 80%: pest or weed control at 200 ppm [2] | inhibition of growth at 20 ppm [3] | inhibition of growth at 20 ppm [4] | pest or weed control at 200 ppm [5] | inhibition of growth at 20 ppm [6]
